# Molecular target: human APJ receptor (Homo sapiens (Human), UniProt P35414)
# Experiment: [35S]GTPγS binding assay on membranes from CHO cells stably expressing human APJ receptor
# Assay type: biochemical
# Conditions: means of several independent experiments, read-out: Activity hAPJ SPA EC50 IP
# Protocol: The human APJ receptor was cloned by polymerase chain reaction and the gene encoding the receptor was subcloned in pFLAG-CMV™-3 expression vector (Sigma, Saint Louis, Mo. USA) in-house at Amgen. A GTPγS binding assay was performed on membranes prepared from CHO cells stably expressing human APJ receptor. The optimum experimental conditions for the concentrations of GDP, MgCl2, and NaCl in the assay buffer were initially determined. […] Incubation was at RT for 90 min and the microplate was read using a ViewLux™ ultra HTS Microplate Imager (PerkinElmer, Inc.). All the results presented are means of several independent experiments and analyzed by non-linear regression methods using the commercially available program Prism (GraphPad, San Diego, Calif.) providing the EC50 values detailed in Table 28.
# human APJ receptor, sequence (P35414 whole entry): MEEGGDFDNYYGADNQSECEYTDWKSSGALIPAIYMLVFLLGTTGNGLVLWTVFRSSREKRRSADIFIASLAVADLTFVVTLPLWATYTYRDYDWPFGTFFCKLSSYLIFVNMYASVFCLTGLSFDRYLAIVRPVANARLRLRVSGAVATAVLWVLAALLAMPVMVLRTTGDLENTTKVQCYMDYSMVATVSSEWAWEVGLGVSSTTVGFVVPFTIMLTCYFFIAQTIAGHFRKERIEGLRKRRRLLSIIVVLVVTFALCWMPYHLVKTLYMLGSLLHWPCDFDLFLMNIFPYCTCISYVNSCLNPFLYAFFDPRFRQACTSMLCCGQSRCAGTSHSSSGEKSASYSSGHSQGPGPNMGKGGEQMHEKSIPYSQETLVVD
row,SMILES,EC50
1,"C[C@H](c1ncc(Cl)cn1)[C@H](C)S(=O)(=O)Nc1nnc(-c2ccccc2)n1C1CCOCC1 [Example 61.0, (2S,3R)-3-(5-chloro-2-pyrimidinyl)-N-(5-phenyl-4-(tetrahydro-2H-pyran-4-yl)-4H-1,2,4-triazol-3-yl)-2-butanesulfonamide]",0.069 µM
2,"COc1ncnc(OC)c1-n1c(NS(=O)(=O)CCc2ccc(Cl)cc2)nnc1-c1ccccc1 [Example 19.0, 2-(4-chlorophenyl)-N-(4-(4,6-dimethoxy-5-pyrimidinyl)-5-phenyl-4H-1,2,4-triazol-3-yl)ethanesulfonamide]",0.04 µM
3,"COc1cccc(OC)c1-n1c(NS(=O)(=O)[C@@H](C)[C@H](OC)c2ncc(C)cn2)nnc1-c1ccc(Cl)c(Cl)c1 [Example 70.0, (1R,2S)-N-(5-(3,4-dichlorophenyl)-4-(2,6-dimethoxyphenyl)-4H-1,2,4-triazol-3-yl)-1-methoxy-1-(5-methyl-2-pyrimidinyl)-2-propanesulfonamide]",0.0038 µM
4,"COc1ccnc(OC)c1-n1c(NS(=O)(=O)[C@@H](C)[C@H](OC)c2ncc(C)cn2)nnc1-c1ccccc1 [Example 36.0, (1R,2S,P)-N-(4-(2,4-dimethoxy-3-pyridinyl)-5-phenyl-4H-1,2,4-triazol-3-yl)-1-methoxy-1-(5-methyl-2-pyrimidinyl)-2-propanesulfonamide and (1R,2S,S)-N-(4-(2,4-dimethoxy-3-pyridinyl)-5-phenyl-4H-1,2,4-triazol-3-yl)-1-methoxy-1-(5-methyl-2-pyrimidinyl)-2-propanesulfonamide]",0.0019 µM
5,"COc1cccc(OC)c1-n1c(NS(=O)(=O)[C@@H](C)[C@H](OC)c2ncc(C)cn2)nnc1-c1ccc2nccnc2c1 [Example 84.0, (1R,2S)-N-(4-(2,6-dimethoxyphenyl)-5-(6-quinoxalinyl)-4H-1,2,4-triazol-3-yl)-1-methoxy-1-(5-methyl-2-pyrimidinyl)-2-propanesulfonamide]",0.055 µM
6,"COc1ccnc(OC)c1-n1c(NS(=O)(=O)[C@@H](C)[C@H](OC)c2ncc(C)cn2)nnc1-c1ccccc1 (single isomer, unassigned) [Example 24.0, (1R,2S,P)-N-(4-(2,4-dimethoxy-3-pyridinyl)-5-phenyl-4H-1,2,4-triazol-3-yl)-1-methoxy-1-(5-methyl-2-pyrimidinyl)-2-propanesulfonamide or (1R,2S,M)-N-(4-(2,4-dimethoxy-3-pyridinyl)-5-phenyl-4H-1,2,4-triazol-3-yl)-1-methoxy-1-(5-methyl-2-pyrimidinyl)-2-propanesulfonamide]",0.00027 µM
7,COC[C@H](C)n1c(NS(=O)(=O)[C@@H](C)[C@H](C)c2ncc(Cl)cn2)nnc1-c1ccccc1 [Example 126.0],0.017 µM
8,"COc1ccnc(OC)c1-n1c(NS(=O)(=O)[C@@H](C)[C@H](OC)c2ncc(C)cn2)nnc1-c1ccccc1 (single isomer, unassigned) [Example 23.0, (1R,2S,P)-N-(4-(2,4-dimethoxy-3-pyridinyl)-5-phenyl-4H-1,2,4-triazol-3-yl)-1-methoxy-1-(5-methyl-2-pyrimidinyl)-2-propanesulfonamide or (1R,2S,M)-N-(4-(2,4-dimethoxy-3-pyridinyl)-5-phenyl-4H-1,2,4-triazol-3-yl)-1-methoxy-1-(5-methyl-2-pyrimidinyl)-2-propanesulfonamide]",0.0059 µM
9,COc1ncnc(OC)c1-n1c(NS(=O)(=O)[C@@H](C)[C@H](C)c2ncc(C)cn2)nnc1-c1cccc(C(F)(F)F)c1 [Example 48.0],0.023 µM
10,"CO[C@H](c1ncc(Cl)cn1)[C@H](C)S(=O)(=O)Nc1nnc(-c2cccc(S(C)(=O)=O)c2)n1C1CC1 [Example 121.0, (1R,2S)-1-(5-Chloropyrimidin-2-yl)-N-(4-cyclopropyl-5-(3-(methylsulfonyl)phenyl)-4H-1,2,4-triazol-3-yl)-1-methoxypropane-2-sulfonamide]",0.59 µM
11,"COc1ncnc(OC)c1-n1c(NS(=O)(=O)[C@@H](C)Cc2ncc(F)cn2)nnc1-c1ccccc1 (single isomer, unassigned) [Example 9.0, (2S)-N-(4-(4,6-dimethoxy-5-pyrimidinyl)-5-phenyl-4H-1,2,4-triazol-3-yl)-1-(5-fluoro-2-pyrimidinyl)-2-propanesulfonamide or (2R)-N-(4-(4,6-dimethoxy-5-pyrimidinyl)-5-phenyl-4H-1,2,4-triazol-3-yl)-1-(5-fluoro-2-pyrimidinyl)-2-propanesulfonamide]",0.04 µM
12,Cc1cnc([C@H](OC(C)C)[C@H](C)S(=O)(=O)Nc2nnc(-c3ccccc3)n2C2(C)CC2)nc1 [Example 99.0],0.008 µM
13,COCC1(n2c(NS(=O)(=O)[C@@H](C)[C@H](OC)c3ncc(Cl)cn3)nnc2-c2cccc3nn(C)cc23)CCC1 [Example 117.0],0.34 µM
14,Cc1cnc([C@@H](C)[C@H](C)S(=O)(=O)Nc2nnc(-c3cccc4nn(C)cc34)n2C2CCOCC2)nc1 [Example 120.0],0.59 µM
15,"COc1ncnc(OC)c1-n1c(NS(=O)(=O)CCc2ccc(F)cc2C#N)nnc1-c1ccccc1 [Example 10.0, 2-(2-cyano-4-fluorophenyl)-N-(4-(4,6-dimethoxy-5-pyrimidinyl)-5-phenyl-4H-1,2,4-triazol-3-yl)ethanesulfonamide]",0.042 µM
16,"COc1ncnc(OC)c1-n1c(NS(=O)(=O)[C@H]2C[C@@H](OC(C)C)CN(c3ncc(F)cn3)C2)nnc1-c1ccccc1 (single isomer, unassigned) [Example 64.0, (3R,5S)-N-(4-(4,6-dimethoxy-5-pyrimidinyl)-5-phenyl-4H-1,2,4-triazol-3-yl)-1-(5-fluoro-2-pyrimidinyl)-5-(1-methylethoxy)-3-piperidinesulfonamide or (3S,5R)-N-(4-(4,6-dimethoxy-5-pyrimidinyl)-5-phenyl-4H-1,2,4-triazol-3-yl)-1-(5-fluoro-2-pyrimidinyl)-5-(1-methylethoxy)-3-piperidinesulfonamide]",0.0047 µM
17,"COc1cccc(OC)c1-n1c(NS(=O)(=O)[C@H]2CCCN(c3ncc(Cl)cn3)C2)nnc1-c1ccccc1 (single isomer, unassigned) [Example 34.0, (S)-1-(5-Chloropyrimidin-2-yl)-N-(4-(2,6-dimethoxyphenyl)-5-phenyl-4H-1,2,4-triazol-3-yl)piperidine-3-sulfonamide or (R)-1-(5-chloropyrimidin-2-yl)-N-(4-(2,6-dimethoxyphenyl)-5-phenyl-4H-1,2,4-triazol-3-yl)piperidine-3-sulfonamide]",0.028 µM
18,"COc1ncnc(OC)c1-n1c(NS(=O)(=O)[C@@H](C)[C@H](OC)c2ncc(C)cn2)nnc1-c1ccccc1 [Example 4.0, (1R,2S)-N-(4-(4,6-dimethoxypyrimidin-5-yl)-5-phenyl-4H-1,2,4-triazol-3-yl)-1-methoxy-1-(5-methylpyrimidin-2-yl)propane-2-sulfonamide]",0.0029 µM
19,"COc1cccc(OC)c1-n1c(NS(=O)(=O)[C@@H](C)[C@@H](OC(C)C)c2ncc(C)cn2)nnc1-c1ccccc1 [Example 13.0, (1S,2S)-N-(4-(2,6-dimethoxyphenyl)-5-phenyl-4H-1,2,4-triazol-3-yl)-1-(1-methylethoxy)-1-(5-methyl-2-pyrimidinyl)-2-propanesulfonamide]",0.00022 µM
20,COc1cccc(OC)c1-n1c(NS(=O)(=O)[C@@H](C)[C@H](OC)c2ncc(Cl)cn2)nnc1-c1cccc2cn(C)nc12 [Example 91.0],0.002 µM
21,"CO[C@H]1CCC[C@@H](OC)[C@@H]1n1c(NS(=O)(=O)[C@@H](C)[C@H](C)c2ncc(C)cn2)nnc1-c1ccccc1 [Example 33.0, (2S,3R)—N-(4-((1r,2R,6S)-2,6-Dimethoxycyclohexyl)-5-phenyl-4H-1,2,4-triazol-3-yl)-3-(5-methyl-2-pyrimidinyl)-2-butanesulfonamide]",0.23 µM
22,"COc1ncnc(OC)c1-n1c(NS(=O)(=O)[C@@H](C)[C@H](C)c2ncc(Cl)cn2)nnc1-c1ccccc1 [Example 17.0, (2S,3R)-3-(5-chloro-2-pyrimidinyl)-N-(4-(4,6-dimethoxy-5-pyrimidinyl)-5-phenyl-4H-1,2,4-triazol-3-yl)-2-butanesulfonamide]",0.00089 µM
23,"COc1cccc(OC)c1-n1c(NS(=O)(=O)[C@@H](C)[C@H](OC)c2ncc(C)cn2)nnc1-c1cccc([C@](C)(O)C(F)(F)F)c1 (mixture of isomers) [Example 88.0, (1R,2S)—N-(4-(2,6-Dimethoxyphenyl)-5-(3-((1S)-2,2,2-trifluoro-1-hydroxy-1-methylethyl)phenyl)-4H-1,2,4-triazol-3-yl)-1-methoxy-1-(5-methyl-2-pyrimidinyl)-2-propanesulfonamide and (1R,2S)—N-(4-(2,6-dimethoxyphenyl)-5-(3-((1R)-2,2,2-trifluoro-1-hydroxy-1-methylethyl)phenyl)-4H-1,2,4-triazol-3-yl)-1-methoxy-1-(5-methyl-2-pyrimidinyl)-2-propanesulfonamide]",0.023 µM
24,COc1ncnc(OC)c1-n1c(NS(=O)(=O)[C@@H](C)[C@H](OC)c2ncc(C)cn2)nnc1-c1cccc2cn(C)nc12 [Example 93.0],0.041 µM
25,COCC1(n2c(NS(=O)(=O)[C@@H](C)[C@H](OC)c3ncc(Cl)cn3)nnc2-c2cccc3nn(C)cc23)CC1 [Example 114.0],0.053 µM
26,"COc1cccc(OC)c1-n1c(NS(=O)(=O)[C@@H](C)[C@H](OC)c2ncc(C)cn2)nnc1-c1ccccc1F [Example 67.0, (1R,2S)-N-(4-(2,6-dimethoxyphenyl)-5-(2-fluorophenyl)-4H-1,2,4-triazol-3-yl)-1-methoxy-1-(5-methyl-2-pyrimidinyl)-2-propanesulfonamide]",0.0059 µM
27,"COc1cccc(OC)c1-n1c(NS(=O)(=O)[C@@H](C)[C@H](OC)c2ncc(C)cn2)nnc1-c1ccc(C)cc1 [Example 78.0, (1R,2S)-N-(4-(2,6-dimethoxyphenyl)-5-(4-methylphenyl)-4H-1,2,4-triazol-3-yl)-1-methoxy-1-(5-methyl-2-pyrimidinyl)-2-propanesulfonamide]",0.0024 µM
